# Experimental data taken from PMC4014323, “Structure of tyrosine aminotransferase from Leishmania infantum” (Acta Crystallographica. Section F, Structural Biology …, 2014).
# B1: Leishmania infantum tyrosine aminotransferase, truncated (lacking the first 114 nucleotides of the annotated sequence) (domain or fragment, UniProt A4IDL0 39-448, looked up)
# chain: TSFRRIASSKHAQRTLQPLNNLTDNMKPSRSTKSNLRLSIGDPTVDGNLKTPDIVTEAMVDVVRSGKFNGYPPTVGADNLRQVVSTYWRRFCQTKSRQEALKWENVIITSGVSQAIVLALTALCNEGDNILVCAPSFPHYKSVCDSYGIECRYYYLDPSKSWECDLRAAAGMVDSHTKAFVIINPSNPCGSNFSRAHVSDIIDFCQQHQIPLISDEIYAEMVLNNGIFTSVADFDTNVPRLILGGTAKYQVCPGWRVGWSILIDPMNVAGDWAVGMERLTQLIAGVNSICQEAIARTLLKCPTECTEHIVTQLEAGAKVYARLLEHDIGISMEAPQASMFVMLKLNLSYFQDLKSDMEFYEKLLDEENVQVLPGEIFGMSGFLRATVSRPSAVLNEAVDRIIEFCERHKK
# modifications: PLP covalently bound to Lys286
# notes: residues Ser40-Lys448 built in chain A of the crystal structure; they are worked out from the deletion of the first 114 nucleotides of a protein of 448 amino acids; source: E. coli BL21 (DE3) pLysS, purified (HisTrap FF, Superdex 75 SEC); not shown: His tag (from the vector pRSET-A)
# B2: Leishmania infantum tyrosine aminotransferase, full length (enzyme, UniProt A4IDL0 1-448, looked up)
# chain: MTIDTQAAPAAQTLKAGNSTGSLTEERREVEQQRAAENTSFRRIASSKHAQRTLQPLNNLTDNMKPSRSTKSNLRLSIGDPTVDGNLKTPDIVTEAMVDVVRSGKFNGYPPTVGADNLRQVVSTYWRRFCQTKSRQEALKWENVIITSGVSQAIVLALTALCNEGDNILVCAPSFPHYKSVCDSYGIECRYYYLDPSKSWECDLRAAAGMVDSHTKAFVIINPSNPCGSNFSRAHVSDIIDFCQQHQIPLISDEIYAEMVLNNGIFTSVADFDTNVPRLILGGTAKYQVCPGWRVGWSILIDPMNVAGDWAVGMERLTQLIAGVNSICQEAIARTLLKCPTECTEHIVTQLEAGAKVYARLLEHDIGISMEAPQASMFVMLKLNLSYFQDLKSDMEFYEKLLDEENVQVLPGEIFGMSGFLRATVSRPSAVLNEAVDRIIEFCERHKK
# notes: Tyrosine aminotransferase of Leishmania infantum (MHOM/ES/98/10445), full-length gene LinJ.36.2490 encoding 448 amino acids; Cloned BamHI/HindIII into pRSET-A; PLP (4 uM) was in the lysis and IMAC buffers; also called LiTAT; TAT; source: E. coli BL21 (DE3) pLysS, purified (HisTrap FF, Superdex 75 SEC); not shown: His tag (from the vector pRSET-A)
# Legend:
# [1] = molecular target: T1, LiTAT_truncated (Leishmania infantum, UniProt A4IDL0); experiment: X-ray crystallography, […] A; assay type: binding; conditions: covalent, internal aldimine at Lys286; crystals at pH 8.5
# T1 construct: gene TAT; E. coli BL21(DE3) pLysS; homodimer; model Ser40-Lys448
# T1 sequence (A4IDL0 39-448): B1 chain
# [2] = molecular target: T1, LiTAT_truncated; experiment: Diamondstone p-hydroxybenzaldehyde assay; assay type: biochemical
# [3] = molecular target: the molecule itself; experiment: SEC; HiLoad 26/60 Superdex 75 prep grade, room temperature, 20 mM HEPES pH 7.0, 300 mM NaCl, 5% glycerol, 1 mM TCEP; molecular weight estimated from a calibration curve (Low Molecular Weight Kit)
molecule,measurement,setting,value
Cc1ncc(COP(=O)(O)O)c(C=O)c1O [PLP],"X-ray crystallography, 2.35 A",[1],"In both subunits of LiTAT, PLP is covalently bound to Lys286"
CC(=O)C(=O)O [pyruvate],Diamondstone p-hydroxybenzaldehyde assay,"[2]; amino acceptor, co-substrate tyrosine",it can transaminate pyruvate with high efficiency
N[C@@H](Cc1ccc(O)cc1)C(=O)O [tyrosine],Diamondstone p-hydroxybenzaldehyde assay,"[2]; amino donor, co-substrate pyruvate",using tyrosine as the amino donor
B1,stoichiometry N,[3],2
B2,stoichiometry N,[3],2
